Patent US10350224B2, “Stabilized modified release vitamin D formulation and method of administering same” (OPKO IRELAND GLOBAL HOLDINGS, LTD., priority 2013, dated 2019)
Like-named read-outs stand apart in the source and are kept apart here.

What was measured:
[1] = Study B: single-dose pharmacokinetics of 25-hydroxyvitamin D3 in healthy subjects; assay type: in vivo; settings: human, serum, iv, 448 ug, single i.v. dose 448 μg in ethanol solution
[2] = test system: serum total 1,25-dihydroxyvitamin D; assay: Study A: serum total 1,25-dihydroxyvitamin D after single dose; assay type: in vivo, human; settings: single i.v. dose 448 μg, by 6 hours post-dose
[3] = Study A: single-dose pharmacokinetics of serum 25-hydroxyvitamin D3 in subjects with stage 3 or 4 CKD; assay type: in vivo, human; settings: for Tmax / Cmax / AUC(0-t) / AUC(0-inf) / half-life: human, serum, iv, 448 ug
serum iPTH = assay: Study A: serum iPTH after single dose; assay type: in vivo, human; settings: single i.v. dose 448 μg, first 96 hours
[4] = baseline-adjusted 25-hydroxyvitamin D3, 448 μg iv single dose
[5] = observed 25-hydroxyvitamin D3, 448 μg iv single dose

Question: For `C=C1CC[C@H](O)C/C1=C/C=C1\CCC[C@]2(C)[C@@H]([C@H](C)CCCC(C)(C)O)CC[C@@H]12` [25-hydroxyvitamin D3], which Cmax [1] is on record?
Answer: 153 ng/mL

Question: What about the “increase of mean serum total 1,25-dihydroxyvitamin D from pre-treatment baseline” value [2] of the same compound?
Answer: approximately 13 pg/mL

Question: What about the “CL mean (SD)” value [3, 4] of the same compound?
Answer: 0.036 (0.014) L/ng * h

Question: And the CL median [3, 4]?
Answer: 0.037 L/ng/h

Question: And the F mean [3, 4]?
Answer: 1.000 (NA)

Question: What about the “Vd mean (SD)” value [3, 4] of the same compound?
Answer: 32.94 (11.00) L/ng

Question: What about the Vd median [3, 4] of the same compound?
Answer: 29.70 L/ng

Question: And the “λ2 mean (SD)” value [3, 4]?
Answer: 0.0011 (0.0005) h^−1

Question: What about the λ2 median [3, 4] of the same compound?
Answer: 0.0010 h⁻¹

Question: And the Tmax ([3]; Study A, single i.v. dose 448 μg in ethanol solution, read-out: Tmax)?
Answer: 30 min

Question: What about the Cmax ([3]; approximate mean Cmax of 25-hydroxyvitamin D3, Study A, single i.v. dose 448 μg in ethanol solution) of the same compound?
Answer: ~134 ng/mL

Question: And the AUC(0-t) ([3]; baseline-adjusted 25-hydroxyvitamin D3, 448 μg iv single dose, read-out: AUC0-42 days mean)?
Answer: 19600 ng·h/mL

Question: And the AUC(0-t) ([3]; baseline-adjusted 25-hydroxyvitamin D3, 448 μg iv single dose, read-out: AUC0-42 days median)?
Answer: 18800 ng·h/mL

Question: What about the AUC(0-inf) ([3]; baseline-adjusted 25-hydroxyvitamin D3, 448 μg iv single dose, read-out: AUC0-inf mean) of the same compound?
Answer: 34500 ng·h/mL

Question: And the AUC(0-inf) ([3]; baseline-adjusted 25-hydroxyvitamin D3, 448 μg iv single dose, read-out: AUC0-inf median)?
Answer: 27000 ng·h/mL

Question: What about the AUC(0-t) ([3]; baseline-adjusted 25-hydroxyvitamin D3, 448 μg iv single dose, read-out: AUC0-last mean) of the same compound?
Answer: 19600 ng·h/mL

Question: What about the AUC(0-t) ([3]; baseline-adjusted 25-hydroxyvitamin D3, 448 μg iv single dose, read-out: AUC0-last median) of the same compound?
Answer: 18800 ng·h/mL

Question: And the Cmax ([3]; baseline-adjusted 25-hydroxyvitamin D3, 448 μg iv single dose, read-out: Cmax mean (SD))?
Answer: 110 ng/mL

Question: What about the Cmax ([3]; baseline-adjusted 25-hydroxyvitamin D3, 448 μg iv single dose, read-out: Cmax median) of the same compound?
Answer: 111 ng/mL

Question: What about the half-life ([3]; baseline-adjusted 25-hydroxyvitamin D3, 448 μg iv single dose, read-out: t1/2 mean (SD) (converted)) of the same compound?
Answer: 31.1 days

Question: And the half-life ([3]; baseline-adjusted 25-hydroxyvitamin D3, 448 μg iv single dose, read-out: t1/2 median (converted))?
Answer: 27.6 days

Question: And the Tmax ([3]; baseline-adjusted 25-hydroxyvitamin D3, 448 μg iv single dose, read-out: tmax mean (SD))?
Answer: 29.4 min

Question: And the Tmax ([3]; baseline-adjusted 25-hydroxyvitamin D3, 448 μg iv single dose, read-out: tmax median)?
Answer: 15 min

Question: What about the AUC(0-t) ([3]; observed 25-hydroxyvitamin D3, 448 μg iv single dose, read-out: AUC0-42 days mean) of the same compound?
Answer: 43500 ng·h/mL

Question: And the AUC(0-t) ([3]; observed 25-hydroxyvitamin D3, 448 μg iv single dose, read-out: AUC0-42 days median)?
Answer: 47100 ng·h/mL

Question: And the AUC(0-inf) ([3]; observed 25-hydroxyvitamin D3, 448 μg iv single dose, read-out: AUC0-inf mean)?
Answer: 138000 ng·h/mL

Question: What about the AUC(0-inf) ([3]; observed 25-hydroxyvitamin D3, 448 μg iv single dose, read-out: AUC0-inf median) of the same compound?
Answer: 124000 ng·h/mL

Question: What about the AUC(0-t) ([3]; observed 25-hydroxyvitamin D3, 448 μg iv single dose, read-out: AUC0-last mean) of the same compound?
Answer: 43500 ng·h/mL

Question: And the AUC(0-t) ([3]; observed 25-hydroxyvitamin D3, 448 μg iv single dose, read-out: AUC0-last median)?
Answer: 47100 ng·h/mL

Question: And the Cmax ([3]; observed 25-hydroxyvitamin D3, 448 μg iv single dose, read-out: Cmax mean (SD))?
Answer: 134 ng/mL

Question: And the Cmax ([3]; observed 25-hydroxyvitamin D3, 448 μg iv single dose, read-out: Cmax median)?
Answer: 134 ng/mL

Question: What about the half-life ([3]; observed 25-hydroxyvitamin D3, 448 μg iv single dose, read-out: t1/2 mean (SD) (converted)) of the same compound?
Answer: 74 days

Question: What about the half-life ([3]; observed 25-hydroxyvitamin D3, 448 μg iv single dose, read-out: t1/2 median (converted)) of the same compound?
Answer: 70.6 days

Question: What about the Tmax ([3]; observed 25-hydroxyvitamin D3, 448 μg iv single dose, read-out: tmax mean (SD)) of the same compound?
Answer: 29.4 min

Question: What about the Tmax ([3]; observed 25-hydroxyvitamin D3, 448 μg iv single dose, read-out: tmax median) of the same compound?
Answer: 15 min

Question: And the “CL mean (SD)” value [3, 5]?
Answer: 0.0095 (0.0065) L/ng * h

Question: And the CL median [3, 5]?
Answer: 0.0081 L/ng/h

Question: What about the F mean [3, 5] of the same compound?
Answer: 1.000 (NA)

Question: And the “Vd mean (SD)” value [3, 5]?
Answer: 20.35 (7.42) L/ng

Question: And the Vd median [3, 5]?
Answer: 19.550 L/ng

Question: What about the “λ2 mean (SD)” value [3, 5] of the same compound?
Answer: 0.0005 (0.0002) h^−1

Question: And the λ2 median [3, 5]?
Answer: 0.0004 h⁻¹

Question: And the “change in serum iPTH” value (serum iPTH)?
Answer: no meaningful change
